In US20150148235A1, “HERBICIDE-RESISTANT SUNFLOWER PLANTS WITH MULTIPLE HERBICIDE RESISTANT ALLELES OF AHASL1 AND METHODS OF USE” (NIDERA S.A., priority 2013, published 2015):

Test system: sunflower hybrids and lines (A122T, A205V, A205V/A122T)
Test: Field trial North Dakota 2006, phytotoxicity ratings after imazamox or imazapyr, Example 3
Type: in vivo, Helianthus annuus
Settings: for phytotoxicity: 200 g ai/ha
Description: • Spray volume: 10 gallons per acre (GPA) (or 100 liters/ha) for backpack sprayer or 20 GPA (or 200 liters/ha) for tractor mounted boom • Growth Stage at Herbicide Application: 2-4 leaves
Entry 15 (WT Maintainer line) was left unsprayed in all treatment blocks.
Phytotoxicity ratings were assessed at 7 and 21 days following herbicide application.
The data was subjected to an ANOVA analysis and the means from the 3 repetitions are presented in Table 7 (phytotoxicity at 7 days post-treatment) and Table 8 (phytotoxicity at 21 days post-treatment).

COCc1cnc(C2=NC(C)(C(C)C)C(=O)N2)c(C(=O)O)c1 (centres unmarked) [imazamox]
Phytotoxicity Rating (% Crop Injury) (9-line (GM40 restorer, A122 homo), 200 g ai/ha + 0.25% NIS, 7 DAT): 10.0%
Phytotoxicity Rating (% Crop Injury) (9-line (GM40 restorer, A122 homo), 200 g ai/ha + 0.25% NIS, 21 DAT): 3.3%
Phytotoxicity Rating (% Crop Injury) (10-hybrid (IMI CMS × GM40 restorer, A205/A122 hetero/double), 50 g ai/ha + 0.25% NIS, 7 DAT): 3.3%
Phytotoxicity Rating (% Crop Injury) (10-hybrid (IMI CMS × GM40 restorer, A205/A122 hetero/double), 50 g ai/ha + 0.25% NIS, 21 DAT): 0.0%
Phytotoxicity Rating (% Crop Injury) (10-hybrid (IMI CMS × GM40 restorer, A205/A122 hetero/double), 100 g ai/ha + 0.25% NIS, 7 DAT): 3.3%
Phytotoxicity Rating (% Crop Injury) (10-hybrid (IMI CMS × GM40 restorer, A205/A122 hetero/double), 100 g ai/ha + 0.25% NIS, 21 DAT): 0.0%
Phytotoxicity Rating (% Crop Injury) (10-hybrid (IMI CMS × GM40 restorer, A205/A122 hetero/double), 200 g ai/ha + 0.25% NIS, 7 DAT): 10.0%
Phytotoxicity Rating (% Crop Injury) (10-hybrid (IMI CMS × GM40 restorer, A205/A122 hetero/double), 200 g ai/ha + 0.25% NIS, 21 DAT): 1.7%
Phytotoxicity Rating (% Crop Injury) (11-hybrid (GM40 CMS × IMI restorer, A205/A122 hetero/double), 50 g ai/ha + 0.25% NIS, 7 DAT): 0.0%
Phytotoxicity Rating (% Crop Injury) (11-hybrid (GM40 CMS × IMI restorer, A205/A122 hetero/double), 50 g ai/ha + 0.25% NIS, 21 DAT): 0.0%
Phytotoxicity Rating (% Crop Injury) (11-hybrid (GM40 CMS × IMI restorer, A205/A122 hetero/double), 100 g ai/ha + 0.25% NIS, 7 DAT): 3.3%
Phytotoxicity Rating (% Crop Injury) (11-hybrid (GM40 CMS × IMI restorer, A205/A122 hetero/double), 100 g ai/ha + 0.25% NIS, 21 DAT): 0.0%
Phytotoxicity Rating (% Crop Injury) (11-hybrid (GM40 CMS × IMI restorer, A205/A122 hetero/double), 200 g ai/ha + 0.25% NIS, 7 DAT): 11.7%
Phytotoxicity Rating (% Crop Injury) (11-hybrid (GM40 CMS × IMI restorer, A205/A122 hetero/double), 200 g ai/ha + 0.25% NIS, 21 DAT): 3.3%
Phytotoxicity Rating (% Crop Injury) (12-hybrid (IMI CMS × GM40 restorer, A205/A122 hetero/double), 50 g ai/ha + 0.25% NIS, 7 DAT): 10.0%
Phytotoxicity Rating (% Crop Injury) (12-hybrid (IMI CMS × GM40 restorer, A205/A122 hetero/double), 50 g ai/ha + 0.25% NIS, 21 DAT): 3.3%
Phytotoxicity Rating (% Crop Injury) (12-hybrid (IMI CMS × GM40 restorer, A205/A122 hetero/double), 100 g ai/ha + 0.25% NIS, 7 DAT): 10.0%
Phytotoxicity Rating (% Crop Injury) (12-hybrid (IMI CMS × GM40 restorer, A205/A122 hetero/double), 100 g ai/ha + 0.25% NIS, 21 DAT): 3.3%
Phytotoxicity Rating (% Crop Injury) (12-hybrid (IMI CMS × GM40 restorer, A205/A122 hetero/double), 200 g ai/ha + 0.25% NIS, 7 DAT): 11.7%
Phytotoxicity Rating (% Crop Injury) (12-hybrid (IMI CMS × GM40 restorer, A205/A122 hetero/double), 200 g ai/ha + 0.25% NIS, 21 DAT): 3.3%
Phytotoxicity Rating (% Crop Injury) (13-hybrid (GM40 CMS × GM40 restorer, A122 homo), 50 g ai/ha + 0.25% NIS, 7 DAT): 3.3%
Phytotoxicity Rating (% Crop Injury) (13-hybrid (GM40 CMS × GM40 restorer, A122 homo), 50 g ai/ha + 0.25% NIS, 21 DAT): 0.0%
Phytotoxicity Rating (% Crop Injury) (13-hybrid (GM40 CMS × GM40 restorer, A122 homo), 100 g ai/ha + 0.25% NIS, 7 DAT): 5.0%
Phytotoxicity Rating (% Crop Injury) (13-hybrid (GM40 CMS × GM40 restorer, A122 homo), 100 g ai/ha + 0.25% NIS, 21 DAT): 1.7%
Phytotoxicity Rating (% Crop Injury) (13-hybrid (GM40 CMS × GM40 restorer, A122 homo), 200 g ai/ha + 0.25% NIS, 7 DAT): 10.0%
Phytotoxicity Rating (% Crop Injury) (13-hybrid (GM40 CMS × GM40 restorer, A122 homo), 200 g ai/ha + 0.25% NIS, 21 DAT): 3.3%
Phytotoxicity Rating (% Crop Injury) (14-hybrid (GM40 CMS × GM40 restorer, A122 homo), 50 g ai/ha + 0.25% NIS, 7 DAT): 5.0%
Phytotoxicity Rating (% Crop Injury) (14-hybrid (GM40 CMS × GM40 restorer, A122 homo), 50 g ai/ha + 0.25% NIS, 21 DAT): 0.0%
Phytotoxicity Rating (% Crop Injury) (14-hybrid (GM40 CMS × GM40 restorer, A122 homo), 100 g ai/ha + 0.25% NIS, 7 DAT): 6.7%
Phytotoxicity Rating (% Crop Injury) (14-hybrid (GM40 CMS × GM40 restorer, A122 homo), 100 g ai/ha + 0.25% NIS, 21 DAT): 3.3%
Phytotoxicity Rating (% Crop Injury) (14-hybrid (GM40 CMS × GM40 restorer, A122 homo), 200 g ai/ha + 0.25% NIS, 7 DAT): 11.7%
Phytotoxicity Rating (% Crop Injury) (14-hybrid (GM40 CMS × GM40 restorer, A122 homo), 200 g ai/ha + 0.25% NIS, 21 DAT): 5.0%
Phytotoxicity Rating (% Crop Injury) (15-hybrid (WT × GM40 restorer, A122 hetero), 50 g ai/ha + 0.25% NIS, 7 DAT): 10.0%
Phytotoxicity Rating (% Crop Injury) (15-hybrid (WT × GM40 restorer, A122 hetero), 50 g ai/ha + 0.25% NIS, 21 DAT): 6.7%
Phytotoxicity Rating (% Crop Injury) (15-hybrid (WT × GM40 restorer, A122 hetero), 100 g ai/ha + 0.25% NIS, 7 DAT): 11.7%
Phytotoxicity Rating (% Crop Injury) (15-hybrid (WT × GM40 restorer, A122 hetero), 100 g ai/ha + 0.25% NIS, 21 DAT): 11.7%
Phytotoxicity Rating (% Crop Injury) (15-hybrid (WT × GM40 restorer, A122 hetero), 200 g ai/ha + 0.25% NIS, 7 DAT): 16.7%
Phytotoxicity Rating (% Crop Injury) (15-hybrid (WT × GM40 restorer, A122 hetero), 200 g ai/ha + 0.25% NIS, 21 DAT): 30.0%
Phytotoxicity Rating (% Crop Injury) (16-hybrid (WT × GM40 restorer, A122 hetero), 50 g ai/ha + 0.25% NIS, 7 DAT): 10.0%
Phytotoxicity Rating (% Crop Injury) (16-hybrid (WT × GM40 restorer, A122 hetero), 50 g ai/ha + 0.25% NIS, 21 DAT): 6.7%
Phytotoxicity Rating (% Crop Injury) (16-hybrid (WT × GM40 restorer, A122 hetero), 100 g ai/ha + 0.25% NIS, 7 DAT): 15.0%
Phytotoxicity Rating (% Crop Injury) (16-hybrid (WT × GM40 restorer, A122 hetero), 100 g ai/ha + 0.25% NIS, 21 DAT): 16.7%
Phytotoxicity Rating (% Crop Injury) (16-hybrid (WT × GM40 restorer, A122 hetero), 200 g ai/ha + 0.25% NIS, 7 DAT): 23.3%
Phytotoxicity Rating (% Crop Injury) (16-hybrid (WT × GM40 restorer, A122 hetero), 200 g ai/ha + 0.25% NIS, 21 DAT): 31.7%
phytotoxicity (heterozygous A205V/A122T lines, 21 DAT): 2-3%
phytotoxicity (homozygous A122T/A122T lines, 21 DAT): 3-5%
phytotoxicity (homozygous A205V/A205V lines, 21 DAT): 15-22%
